In experiment [1] the test system is HeLa cells. Description: Luciferase activity in HeLa cells transfected with mRNA-lipoplexes in the presence of bioactive lipids (FIGS. 9A-9C, 9F). The experiment is classed as cell-based. Here is the method: FIG. 9A is a graph illustrating luciferase activity in HeLa cells transfected with mRNA-lipoplexes at a dose of 50 ng mRNA in the presence of bioactive lipids (black) normalized to mRNA-lipoplex only control (red), which was set at 100%. Data represented as mean±SEM; n=3. […] FIG. 9B is a graph illustrating luciferase activity in HeLa cells transfected with mRNA-lipoplexes at a dose of 50 ng mRNA in the presence of varying concentrations of MK-571 (blue) relative to mRNA-lipoplex only control (red). Data represented as mean±SD; n=3. […] FIG. 9C is a graph illustrating luciferase activity in HeLa cells transfected with mRNA-lipoplexes at a dose of 50 ng mRNA in the presence of varying concentrations of Arachidonic Acid (blue) relative to mRNA-lipoplex only control (red). Data represented as mean±SD; n=3. […] FIG. 9F is a graph illustrating luciferase activity in HeLa cells transfected with mRNA-lipoplexes at a dose of 50 ng mRNA in the presence of varying concentrations of MK-571 or its analogues, Montelukast, Pranlukast, and Zafirlukast relative to mRNA-lipoplex only control. Data represented as mean±SD; n=3.

Experiment [2] has as its system HeLa cells. Description: Luciferase activity in HeLa cells transfected using LNPs with MK-571 (FIGS. 9D, 9E). The experiment is classed as cell-based. The settings on record: 24 hr pre-incubation with MK-571 (5 μM), increasing doses of mRNA. As to the method: FIG. 9D is a graph illustrating luciferase activity at increasing doses of mRNA in HeLa cells transfected using LNPs, with and without 24 hr pre-incubation with MK-571 (5 μM). Data represented as mean±SD; n=3.
FIG. 9E is a graph illustrating luciferase activity at increasing doses of mRNA in HeLa cells transfected using LNPs and MK-571 loaded LNPs. Data represented as mean±SD; n=3.

Structures are written as SMILES.

In the case of `CCCCC/C=C\C/C=C\C/C=C\C/C=C\CCCC(=O)O` [Arachidonic Acid], in the experiment with HeLa cells [1] (50 ng mRNA, varying concentrations), the “luciferase activity (protein expression) relative to mRNA-lipoplex only control” value is “failed to elicit improvement in protein expression”.
As to `CN(C)C(=O)CCSC(SCCC(=O)O)c1cccc(/C=C/c2ccc3ccc(Cl)cc3n2)c1` (stereo not shown) [MK-571], the “protein expression relative to mRNA-lipoplex only control” value in the experiment on HeLa cells [1] (50 ng mRNA, concentration of 5 μM) is “doubling the protein expression”. Besides, in the experiment on HeLa cells [1] (mRNA-lipoplexes 50 ng mRNA, lipoplex only control set at 100%), the “enhancement of protein expression over the control” value is listed as “approximately 40%”. In the experiment with HeLa cells [2], the “transfection (luciferase activity) using LNPs” value was “able to enhance transfection at all doses of mRNA”.
